Measurements from patent US20050209157A1, “Short bioactive peptides and methods for their use” (priority 2001, published 2005).
Converted amounts (≈) assume the structure as drawn. “And” between values parts separate entries of the source, which are not always exact repeats. Equal entries are not always repeated. Where two headings read alike, the source gives them in different places. Non-standard residues stand in square brackets, D forms with d. Residues, ends and D or L forms follow the SMILES beside them. No end group written: not given here.

Key:
Candida albicans 105 = format: cell-based; settings: Table 13; in µg/mL
[1] = test system: Pseudomonas aeruginosa 105663; format: cell-based; settings: Table 9; in µg/mL
P. aeruginosa H374 = format: cell-based, Pseudomonas aeruginosa; settings: in µg/mL
E. coli UB1005 = format: cell-based, Escherichia coli; settings: Table 12
S. aureus (MRSA) = format: cell-based, Staphylococcus aureus; settings: Table 13, strain SAP0017; in µg/mL
S. typhimurium 14028S = format: cell-based, Salmonella typhimurium; settings: Table 12
[2] = test system: Candida glabrata ATCC15126; assay: Antimicrobial assays II, NCCLS broth microdilution MIC; format: cell-based; settings: Table 13; in µg/mL
[3] = test system: Pseudomonas aeruginosa H187; format: cell-based; settings: in µg/mL
S. epidermidis C621 = format: cell-based, Staphylococcus epidermidis; settings: Table 13; in µg/mL
[4] = test system: Pseudomonas aeruginosa 100609; format: cell-based; settings: Table 9; in µg/mL

Molecule	MIC C. albicans 105 (Candida albicans 105)	MIC P. aeruginosa Tb 105663 [1]	MIC P. aeruginosa H374 (P. aeruginosa H374; Table 9)	MIC P. aeruginosa H374 (P. aeruginosa H374; Table 12)	MIC E. coli UB1005 (E. coli UB1005)	MIC S. aureus SAP0017 (S. aureus (MRSA))	MIC S. typhimurium 14028S (S. typhimurium 14028S)	MIC C. glabrata ATCC15126 [2]	MIC P. aeruginosa H187 ([3]; Table 9)	MIC P. aeruginosa H187 ([3]; Table 12)	MIC S. epidermis C621 (S. epidermidis C621)	MIC P. aeruginosa Tb 100609 [4]
CC(C)C[C@H](NC(=O)[C@H](C)NC(=O)[C@H](CCCCN)NC(=O)[C@H](CCCCN)NC(=O)[C@H](CC(C)C)NC(=O)[C@H](C)NC(=O)[C@H](CCCCN)NC(=O)[C@H](CCCCN)NC(=O)[C@H](CC(C)C)NC(=O)[C@@H](CCCCN)NC(=O)[C@@H](CCCCN)NC(=O)[C@H](CC(C)C)NC(=O)[C@H](C)NC(=O)[C@H](CCCCN)NC(=O)[C@H](CCCCN)NC(=O)[C@H](CC(C)C)NC(=O)[C@H](C)NC(=O)[C@H](CCCCN)NC(=O)[C@H](CC(C)C)NC(=O)[C@H](C)NC(=O)[C@H](CC(C)C)NC(=O)[C@H](C)NC(=O)[C@@H](N)Cc1ccccc1)C(=O)O [P37 (19)] (H-FALALKALKKAL[dK][dK]LKKALKKAL-OH; N-terminus assumed)	32	16	8	8	4 µg/mL (≈ 1.58 µM)	8	8 µg/mL (≈ 3.15 µM)	32	8	8	4	16
CC(C)C[C@H](NC(=O)[C@H](C)NC(=O)[C@H](CC(C)C)NC(=O)[C@H](CCCCN)NC(=O)[C@H](C)NC(=O)[C@H](CC(C)C)NC(=O)[C@H](CCCCN)NC(=O)[C@H](CCCCN)NC(=O)[C@H](C)NC(=O)[C@H](CC(C)C)NC(=O)[C@H](CCCCN)NC(=O)[C@H](C)NC(=O)[C@H](CC(C)C)NC(=O)[C@H](CCCCN)NC(=O)[C@H](CCCCN)NC(=O)[C@H](C)NC(=O)[C@@H](N)Cc1ccccc1)C(N)=O [P35 (17)]	32	4	8	8	2 µg/mL (≈ 1.08 µM)	8	4 µg/mL (≈ 2.16 µM)	16	8	8	4	4
FAKKLAKKLAKLAL-NH2 [P45 (27)]	16	32	8	8	4 µg/mL	32	32 µg/mL	16	16	16	16	32
FALALKALKKLAKKLKKLAKKAL-NH2 [P25 (10)]	32	8	8	8	8 µg/mL	16	8 µg/mL	32	8	8	4	8
KWKLFKKKTKLFKKFAKKLAKKL-NH2 [P73 (49)]	32	16	8	8	8 µg/mL	16	16 µg/mL	128	16	16	4	16
FAKFLAKFLKKAL-NH2 [P111 (75)]	32	32	8	8	16 µg/mL	8	16 µg/mL	32	8	8	4	16
FALKALKKLKKALKKAL-NH2 [P153 (115)]	16	8	4	4	8 µg/mL	16	8 µg/mL	16	8	8	4	8
FAKKLAKKLKKLAKKLAKKWKL-OH [P72 (48)]	32	8	4	4	2 µg/mL	16	8 µg/mL	64	8	8	4	8
FALALKALKKLKKALKKAL-NH2 [P27 (12)]	16 and 32	8 and 16	8	8	8 µg/mL	8 and 16	16 µg/mL	16 and 32	8	8	4	8 and 16
CC(C)C[C@H](NC(=O)[C@H](C)NC(=O)[C@H](CC(C)C)NC(=O)[C@H](CCCCN)NC(=O)[C@H](C)NC(=O)[C@H](CC(C)C)NC(=O)[C@H](CCCCN)NC(=O)[C@H](CCCCN)NC(=O)[C@H](C)NC(=O)[C@H](CC(C)C)NC(=O)[C@H](CCCCN)NC(=O)[C@H](C)NC(=O)[C@H](CC(C)C)NC(=O)[C@H](CCCCN)NC(=O)[C@H](CCCCN)NC(=O)[C@H](C)NC(=O)[C@@H](N)C(C)C)C(N)=O [P50 (32)]	16	8	4	4	2 µg/mL (≈ 1.11 µM)	4	4 µg/mL (≈ 2.21 µM)	16	4	4	4	4
FAKLLAKALKKFAL-NH2 [P119 (81)]	16	16	8	8	4 µg/mL	8	8 µg/mL	16	16	16	4	16
VALALKALKKLLKKLKKLAKKAL-NH2 [P510 (161)]	32	16	8	8	8 µg/mL	8	16 µg/mL	64	8	8	4	16
FAKLLAKALKKLL-NH2 [P55 (35)]	16	16	8	8	4 µg/mL	4	4 µg/mL	8	8	8	2	8
FAKLLAKLAKKVL-NH2 [P124 (86)]	16	64	16	16	16 µg/mL	8	16 µg/mL	16	32	32	4	64
FAKKLAKKLL-NH2 [P59 (39)]	32	8	8	8	8 µg/mL	8	8 µg/mL	16	8	8	8	8
FAKLLAKLAKKLL-NH2 [P43 (25)]	8	8	8	8	8 µg/mL	4	8 µg/mL	16	8	8	2	8
KYKKALKKLAKLL-NH2 [P146 (108)]	8	8	2	2	2 µg/mL	16	4 µg/mL	16	4	4	8	8
